How the values were obtained:
[1] = system: adult male Brown Norway rats; experiment: Ovalbumin allergic asthma model, whole body plethysmography (ΔPenh) after methacholine challenge; assay type: in vivo; conditions: rats, nebulized inhaled drug
From the text: (§1) A modification of the ovalbumin model of allergic asthma and whole body plethysmography protocol as described in Nau et al. (Am. J. Physiol. Lung Cell Mol. Physiol. 2015, 308(2): L191-L198; incorporated herein by reference) was used to determine ΔPenh, a measure of airways hyperresponsiveness (AHR), in response to methacholine challenge in adult male Brown Norway rats. Results, shown in FIGS. 2A-2G, represent PenH change measured in the ovalbumin allergic asthma assay in rats, with the exception of FIG. 2C, which was measured in mice, for nebulized inhaled drug. Statistics were performed using 2-way ANOVA with Tukey post hoc test for multiple comparisons.
Allergic asthma is defined as a chronic inflammatory disorder of the airways. This disease is characterized by airway inflammation, persistent airways AHR and intermittent, reversible airways obstruction.
Area under the curve of PenH values (PenH-AUC) in response to incremental doses of metacholine were calculated for each testing groups, naïve, OVA treated, and OVA+DRUG treated animals. A reduction in PenH-AUC values of more than 75% of the control values (OVA alone) was annotated as a strong efficacy. […] Additional to this information are provided the relative to R-DOI EC50 values (ratio) of tested compounds in 5-HT2AR heterologous cell-based calcium transient assay. […] FIG. 3 illustrates the non-correlative nature of the therapeutic efficacy of the phenylethylamines class of compounds against inflammatory-mediated allergen-induced AHR and the reported evidences of the dose necessary for psychoactive disturbances experienced with these compounds in humans or the potency and strength of these compounds to the 5-HT2AR in calcium transients assays.
Inhibition of ΔPenh as a function of 2C-iBu concentration was studied by nebulization nose-only administration of 2C-iBu to male adult Brown Norway rats as described above. Area under the curve for each treatment group at a given dose of 2C-iBu for ΔPenh is plotted on the Y-axis versus concentration of 2C-iBu on the X-axis.

human 5-HT2A receptor = target: T1, human 5-HT2A receptor (Homo sapiens, UniProt P28223); experiment: Gq-mediated calcium transients (calcium mobilization), Fluo-4, HEK cells; assay type: cell-based; conditions: for pEC50 calcium mobilization / EMAX (%) calcium mobilization: Table 4; for EMAX (%) calcium mobilization: percentage of 5-HT response; for Emax: HEK293, read-out: EMAX (%) calcium mobilization
T1 construct: expressed in transfected cells
T1 sequence (P28223 whole entry): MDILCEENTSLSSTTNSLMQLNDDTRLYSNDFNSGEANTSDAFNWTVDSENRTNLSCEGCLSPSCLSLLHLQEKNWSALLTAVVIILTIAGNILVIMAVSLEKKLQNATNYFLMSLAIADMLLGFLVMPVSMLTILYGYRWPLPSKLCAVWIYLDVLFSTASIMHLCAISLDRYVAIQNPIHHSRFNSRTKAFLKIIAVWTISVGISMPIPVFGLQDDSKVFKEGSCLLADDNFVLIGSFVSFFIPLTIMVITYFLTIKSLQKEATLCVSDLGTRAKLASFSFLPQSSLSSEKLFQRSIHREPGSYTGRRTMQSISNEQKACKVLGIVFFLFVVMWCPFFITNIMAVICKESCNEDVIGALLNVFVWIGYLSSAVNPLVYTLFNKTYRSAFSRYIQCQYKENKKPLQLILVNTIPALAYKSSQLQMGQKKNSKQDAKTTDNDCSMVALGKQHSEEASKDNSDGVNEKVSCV

5-HT2AR-Tango construct = target: T2, 5-HT2AR-Tango construct (Homo sapiens, UniProt P28223); experiment: β-arrestin-2 recruitment, PRESTO-Tango assay in HTLA cells; assay type: cell-based; conditions: for pEC50 beta arrestin recruitment / EMAX (%) beta arrestin recruitment: Table 5; for EMAX (%) beta arrestin recruitment: percentage of 5-HT response
T2 construct: expressed in transfected cells; host or cells: HTLA cells (transient transfection)
T2 sequence (P28223 whole entry, added parts left off): as the sequence (P28223 whole entry) above
T2 sequence (P32121 whole entry partner): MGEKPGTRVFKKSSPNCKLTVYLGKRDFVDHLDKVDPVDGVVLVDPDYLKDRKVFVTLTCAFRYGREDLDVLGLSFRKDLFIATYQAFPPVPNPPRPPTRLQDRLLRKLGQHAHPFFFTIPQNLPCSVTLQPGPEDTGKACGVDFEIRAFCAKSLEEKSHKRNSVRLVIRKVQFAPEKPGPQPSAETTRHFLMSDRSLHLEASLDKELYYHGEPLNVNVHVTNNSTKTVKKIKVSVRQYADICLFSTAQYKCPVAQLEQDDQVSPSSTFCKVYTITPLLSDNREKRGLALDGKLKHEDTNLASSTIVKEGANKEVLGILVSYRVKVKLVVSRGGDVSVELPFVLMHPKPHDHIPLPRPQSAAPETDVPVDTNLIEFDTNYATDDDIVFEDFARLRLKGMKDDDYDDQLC

mice = experiment: Ovalbumin allergic asthma assay (PenH), nebulized inhaled drug, mice (FIG. 2C); assay type: in vivo; conditions: 1.0 mg/kg (FIG. 2C)
From the text: as §1

SMILES	pEC50 calcium mobilization (human 5-HT2A receptor)	EMAX (%) calcium mobilization (human 5-HT2A receptor) [%]	EMAX (%) beta arrestin recruitment (5-HT2AR-Tango construct) [%]	further results
Cl.NCCc1c2c(c(Br)c3c1OCC3)OCC2 [2C-B-Fly.HCl]	–	–	–	Prevention of AHR (ΔPenh/PenH) in response to OVA ([1]; 0.5 mg/kg): significant difference from OVA to naive, and from 2C-B-Fly.HCl+OVA to naive
COc1cc(CCN)c(OC)cc1Br [2C-B]	8.11	78.00	39.46	pEC50 beta arrestin recruitment (5-HT2AR-Tango construct): 5.99
COc1ccc(OC)c(CCN)c1 [2C-H]	6.34	69.50	10.98	pEC50 beta arrestin recruitment (5-HT2AR-Tango construct): 7.07
COc1cc(CCN)c(OC)cc1I [2C-I]	8.14	72.80	–	–
COc1cc(CC(C)(C)C)c(OC)cc1CCN [2C-NP]	–	–	–	EC50 (human 5-HT2A receptor): 155 nM; Emax (human 5-HT2A receptor): 76%
COc1cc(C(C)C)c(OC)cc1CCN [2C-iP]	7.59	52.07	3.46	pEC50 beta arrestin recruitment (5-HT2AR-Tango construct): 7.8
COc1cc(CCNCc2ccccc2OC)c(OC)cc1I [25I-NBOMe]	–	–	–	Prevention of AHR (ΔPenh/PenH) in response to OVA ([1]; 1.0 mg/kg): reduced potency
COc1cc(CC(C)N)c(OC)cc1Br (stereo not drawn) [DOB]	–	–	–	Prevention of AHR (PenH) in response to OVA (mice): did not reduce potency
COc1cc(C(F)(F)F)c(OC)cc1CC(C)N (stereo not drawn) [DOTFM]	–	–	–	Prevention of AHR (ΔPenh/PenH) in response to OVA ([1]; 0.5 mg/kg): significant difference from OVA+DOTFM to naive
COc1cc(CC(C)N)c(OC)cc1CC(C)C (stereo not drawn) [DOiBu]	–	–	–	EC50 (human 5-HT2A receptor): 4.47 nM; Emax (human 5-HT2A receptor): 90.6%; EC50 (5-HT2AR-Tango construct): 5.89 nM; Emax (5-HT2AR-Tango construct; HTLA, read-out: EMAX (%) beta arrestin recruitment): 70.2%
COc1cc(C(C)C)c(OC)cc1CC(C)N (stereo not drawn) [DOiP]	8.29	73.17	20.40	pEC50 beta arrestin recruitment (5-HT2AR-Tango construct): 8.24
COc1ccc(OC)c(C[C@@H](C)N)c1 [R-2,5-DMA]	–	108.38	65.51	–
COc1cc(C[C@@H](C)N)c(OC)cc1Br [R-DOB]	–	79.80	98.14	–
COc1cc(Br)c(OC)c2c1[C@H](CN)C2 [TCB-2]	–	–	–	Prevention of AHR (ΔPenh/PenH) in response to OVA ([1]; 0.5 mg/kg): reduced PenH, it was still significantly elevated over naive controls

From patent publication US12398093B2, “Compounds and methods for treating inflammatory disorders” (Board of Supervisors of Louisiana State University and …, priority 2019, dated 2025)
